Positions count from the first letter of the chain named. Where two headings read alike, the source gives them in different places.
Experiments:
Format in all cases: binding
RNase A [1] = target: T1, RNase A (Bos taurus, UniProt P61823); test: ITC
T1 sequence (P61823 27-150): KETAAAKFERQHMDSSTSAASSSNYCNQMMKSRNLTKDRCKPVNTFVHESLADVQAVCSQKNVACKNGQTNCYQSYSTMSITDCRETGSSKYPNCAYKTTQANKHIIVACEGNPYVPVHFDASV

RNase A [2] = target: T2, RNase A (Bos taurus, UniProt P61823, A135G); test: crystal structure
T2 sequence (P61823 27-150 A135G): T1 sequence (P61823 27-150) with A109G

RNase A [3] = target: T2, RNase A; test: crystal structure; remark: listed apart in the source

| Kd (RNase A [1]) [µM] | Kd (RNase A [2]) [µM] | Kd (RNase A [3]) [µM] | SMILES |
| --- | --- | --- | --- |
| 67 ± 6 | 50 ± 8 |  | O=c1ccn([C@@H]2O[C@H](CO)[C@@H](OP(=O)(O)O)[C@H]2O)c(=O)[nH]1 [3′-UMP] |
| 105 ± 1 |  | 440 ± 26 | Nc1ncnc2c1ncn2[C@@H]1O[C@H](COP(=O)(O)O)[C@@H](O)[C@H]1O [5′-AMP] |

Reference: paper PMC4680847 (Structure (London, England : 1993), 2015)
